Experimental data as given in patent US20120220564A1, “SELECTIVE CALCIUM CHANNEL MODULATORS” (Zalicus Pharmaceuticals Ltd., priority 2009, published 2012).

What was measured:
[1] = system: minimal muscular or neurological impairment (rotarod); experiment: Mouse rotarod assay; format: in vivo, mice
Method: To assess a compound's undesirable side effects (toxicity), animals can be monitored for overt signs of impaired neurological or muscular function. In mice, the rotarod procedure (Dunham and Miya, J. Am. Pharmacol. Assoc. 46:208-209 (1957)) is used to disclose minimal muscular or neurological impairment (MMI). When a mouse is placed on a rod that rotates at a speed of 6 rpm, the animal can maintain its equilibrium for long periods of time. The animal is considered toxic if it falls off this rotating rod three times during a 1-min period.

[2] = biological target: T1, α1H (CaV 3.2) (Homo sapiens, UniProt O95180); experiment: T-type calcium channel block, whole cell patch clamp; format: cell-based; conditions: HEK cells, mainly non-inactivated protocol; values above 10,000 nM represented as 10000
T1 construct: expressed in transfected cells; host or cells: HEK 293
How it was run: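 HEK293 cells stably expressing human T-type channels, whole-cell patch clamp; compounds in external solution with 0.1-0.01% DMSO, applied by gravity. Mainly non-inactivating protocol: holding −110 mV, 1 s pre-pulse −100 mV, 50 ms test pulse −40 mV (inactivated protocol uses ~−85 mV pre-pulse); IC50 reported.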

[3] = system: 6 Hz psychomotor seizure; experiment: 6 Hz psychomotor seizure model of partial epilepsy; format: in vivo, mice; design: concentration or dose not given beside the values
Excerpt: Compounds can also be evaluated for the protection against seizures induced by a 6 Hz, 0.2 ms rectangular pulse width of 3 s duration, at a stimulus intensity of 32 mA (CC97) applied to the cornea of male CF1 mice (20-30 g) according to procedures described by Barton et al, “Pharmacological Characterization of the 6 Hz Psychomotor Seizure Model of Partial Epilepsy,” Epilepsy Res. 47(3):217-27 (2001). Seizures are characterised by the expression of one or more of the following behaviours: stun, forelimb clonus, twitching of the vibrissae and Straub-tail immediately following electrical stimulation.

[4] = system: Rat SNL tactile allodynia; experiment: L5/L6 spinal nerve ligation (SNL) Chung pain model, tactile allodynia (von Frey); format: in vivo; conditions: for % Antiallodynia (Mean ± SD): 30 mg/kg PO, n = 7-8; for anti-allodynia effects: second repetition of the study, n=9
Excerpt: The Spinal Nerve Ligation is an animal model representing peripheral nerve injury generating a neuropathic pain syndrome. In this model experimental animals develop the clinical symptoms of tactile allodynia and hyperalgesia. L5/L6 Spinal nerve ligation (SNL) injury was induced using the procedure of Kim and Chung (Kim et al., Pain 50:355-363 (1992)) in male Sprague-Dawley rats (Harlan; Indianapolis, Ind.) weighing 200 to 250 grams.
Anaesthesia was induced with 2% isofluorane in O2 at 2 L/min and maintained with 0.5% isofluorane in O2. Rats were then shaved and aseptically prepared for surgeries. A 2 cm paraspinal incision was made at the level of L4-S2. L4/L5 was exposed by removing the transverse process above the nerves with a small rongeur. The L5 spinal nerve is the larger of the two visible nerves below the transverse process and lies closest to the spine. The L6 spinal nerve is located beneath the corner of the slope bone. A home-made glass Chung rod was used to hook L5 or L6 and a pre-made slip knot of 4.0 silk suture was placed on the tip of the rod just above the nerve and pulled underneath to allow for the tight ligation. The L5 and L6 spinal nerves were tightly ligated distal to the dorsal root ganglion. The incision was closed, and the animals were allowed to recover for 5 days.
Sham control rats underwent the same operation and handling as the experimental animals, but without SNL.
Prior to initiating drug delivery, baseline behavioural testing data is obtained. At selected times after infusion of the Test or Control Article behavioural data can then be collected again.
The assessment of tactile allodynia consisted of measuring the withdrawal threshold of the paw ipsilateral to the site of nerve injury in response to probing with a series of calibrated von Frey filaments (innocuous stimuli). Animals were acclimated to the suspended wire-mesh cages for 30 min before testing. Each von Frey filament was applied perpendicularly to the plantar surface of the ligated paw of rats for 5 sec. A positive response was indicated by a sharp withdrawal of the paw. For rats, the first testing filament is 4.31. Measurements were taken before and after administration of test articles. […] The protocol was repeated until three changes in behaviour were determined (“up and down” method) (Chaplan et al., J. Neurosci. Methods 53:55-63 (1994)). The 50% paw withdrawal threshold was determined as (10^[Xf+kδ])/10,000, where Xf=the value of the last von Frey filament employed, k=Dixon value for the positive/negative pattern, and δ=the logarithmic difference between stimuli. The cut-off values for rats were no less than 0.2 g and no higher than 15 g (5.18 filament); for mice no less than 0.03 g and no higher than 2.34 g (4.56 filament). A significant drop of the paw withdrawal threshold compared to the pre-treatment baseline is considered tactile allodynia.

T1 sequence (O95180 whole entry): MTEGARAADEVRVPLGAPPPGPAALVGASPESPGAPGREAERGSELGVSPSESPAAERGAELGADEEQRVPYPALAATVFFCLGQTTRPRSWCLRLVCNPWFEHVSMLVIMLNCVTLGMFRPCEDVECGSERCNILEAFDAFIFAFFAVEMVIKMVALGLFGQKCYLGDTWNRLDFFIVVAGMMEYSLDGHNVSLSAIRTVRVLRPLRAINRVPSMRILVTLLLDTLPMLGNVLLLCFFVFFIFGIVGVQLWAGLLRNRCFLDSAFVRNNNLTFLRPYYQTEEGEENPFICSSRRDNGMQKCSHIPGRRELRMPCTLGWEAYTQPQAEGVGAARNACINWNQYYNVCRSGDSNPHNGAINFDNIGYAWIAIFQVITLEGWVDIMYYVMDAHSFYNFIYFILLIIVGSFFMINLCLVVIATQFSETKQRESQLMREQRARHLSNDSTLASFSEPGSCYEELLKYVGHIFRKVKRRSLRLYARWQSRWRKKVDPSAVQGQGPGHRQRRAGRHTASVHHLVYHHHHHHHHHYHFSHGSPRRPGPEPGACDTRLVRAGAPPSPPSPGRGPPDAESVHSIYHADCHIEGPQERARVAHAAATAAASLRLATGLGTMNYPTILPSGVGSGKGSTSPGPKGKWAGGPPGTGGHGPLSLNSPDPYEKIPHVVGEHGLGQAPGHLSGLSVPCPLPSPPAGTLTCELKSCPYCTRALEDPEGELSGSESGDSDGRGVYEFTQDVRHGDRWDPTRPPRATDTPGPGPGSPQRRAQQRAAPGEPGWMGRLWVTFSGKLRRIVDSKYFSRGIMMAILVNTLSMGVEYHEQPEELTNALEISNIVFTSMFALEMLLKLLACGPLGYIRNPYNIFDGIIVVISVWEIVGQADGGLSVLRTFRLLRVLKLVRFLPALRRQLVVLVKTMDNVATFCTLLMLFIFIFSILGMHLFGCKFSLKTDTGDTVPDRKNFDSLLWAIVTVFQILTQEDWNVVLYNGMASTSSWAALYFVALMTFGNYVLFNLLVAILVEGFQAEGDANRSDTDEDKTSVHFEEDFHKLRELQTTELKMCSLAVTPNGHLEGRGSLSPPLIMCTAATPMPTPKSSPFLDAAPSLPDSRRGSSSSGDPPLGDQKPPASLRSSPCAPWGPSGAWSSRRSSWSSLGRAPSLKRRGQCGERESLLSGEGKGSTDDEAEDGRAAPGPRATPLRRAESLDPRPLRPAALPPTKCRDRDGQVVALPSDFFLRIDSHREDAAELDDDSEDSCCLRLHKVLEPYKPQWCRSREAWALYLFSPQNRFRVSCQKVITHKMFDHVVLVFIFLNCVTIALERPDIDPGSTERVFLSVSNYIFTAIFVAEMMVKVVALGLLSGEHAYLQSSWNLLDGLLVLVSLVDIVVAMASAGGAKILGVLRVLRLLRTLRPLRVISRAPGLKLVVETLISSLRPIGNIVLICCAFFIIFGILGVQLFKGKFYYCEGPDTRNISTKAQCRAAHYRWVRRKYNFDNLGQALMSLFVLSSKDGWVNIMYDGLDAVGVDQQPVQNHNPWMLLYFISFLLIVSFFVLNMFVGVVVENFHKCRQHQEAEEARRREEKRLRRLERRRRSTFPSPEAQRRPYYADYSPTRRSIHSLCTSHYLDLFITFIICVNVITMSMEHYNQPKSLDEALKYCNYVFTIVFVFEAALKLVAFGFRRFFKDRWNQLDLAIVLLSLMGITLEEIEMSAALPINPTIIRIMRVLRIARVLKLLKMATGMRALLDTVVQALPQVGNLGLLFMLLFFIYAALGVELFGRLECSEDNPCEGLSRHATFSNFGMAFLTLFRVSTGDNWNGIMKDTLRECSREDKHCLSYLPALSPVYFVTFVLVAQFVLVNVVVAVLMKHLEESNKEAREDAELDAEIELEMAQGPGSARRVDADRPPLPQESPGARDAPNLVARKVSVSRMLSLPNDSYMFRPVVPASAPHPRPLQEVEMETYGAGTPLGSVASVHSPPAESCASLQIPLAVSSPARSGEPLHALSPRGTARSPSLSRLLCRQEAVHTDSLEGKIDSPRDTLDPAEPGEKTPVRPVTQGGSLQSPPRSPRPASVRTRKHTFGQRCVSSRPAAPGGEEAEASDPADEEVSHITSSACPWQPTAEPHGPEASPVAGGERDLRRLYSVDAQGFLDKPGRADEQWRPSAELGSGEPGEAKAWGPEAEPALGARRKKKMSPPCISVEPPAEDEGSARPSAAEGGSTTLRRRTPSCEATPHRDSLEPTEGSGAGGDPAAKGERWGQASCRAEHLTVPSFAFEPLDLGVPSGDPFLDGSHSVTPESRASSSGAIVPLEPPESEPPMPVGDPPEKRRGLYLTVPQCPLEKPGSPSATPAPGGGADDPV

In the case of “N-(3,5- bis(trifluoromethyl) phenyl)-2-(1- (piperidine-3- carbonyl)piperidin-4- yl)acetamide [Compound 2]”, the “Rotarod Assay (% impaired)” value ([1]; 0.25 hr) is reported as 25%, the “Rotarod Assay (% impaired)” value ([1]; 0.5 hr) is reported as 50% and the “Rotarod Assay (% impaired)” value ([1]; 1 hr) is reported as 100%. For the same molecule, the “Rotarod Assay (% impaired)” value ([1]; 2 hr) was 100%, the “Rotarod Assay (% impaired)” value ([1]; 4 hr) was 50% and the IC50 [2] was 350 nM. For the same molecule, the “Epilepsy 6 Hz (% Protected)” value ([3]; 0.25 hr) was 50%, the “Epilepsy 6 Hz (% Protected)” value ([3]; 0.5 hr) was 50% and the “Epilepsy 6 Hz (% Protected)” value ([3]; 1 hr) was 100%. The “Epilepsy 6 Hz (% Protected)” value ([3]; 2 hr) was 33%, the “Epilepsy 6 Hz (% Protected)” value ([3]; 4 hr) was 0% and the “Rat SNL tactile allodynia (% antiallodynia)” value ([4]; 1 hr) was 38%. For the same molecule, the “Rat SNL tactile allodynia (% antiallodynia)” value ([4]; 2 hr) was 44% and the “Rat SNL tactile allodynia (% antiallodynia)” value ([4]; 4 hr) was 27%.

With `N[C@@H]1CCCC[C@H]1C(=O)N1CCC(CC(=O)Nc2cc(C(F)(F)F)cc(C(F)(F)F)c2)CC1` (racemic) [Compound 3, trans-2-(1-(2-aminocyclohexanecarbonyl)piperidin-4-yl)-N-(3,5-bis(trifluoromethyl)phenyl)acetamide] the “Rotarod Assay (% impaired)” value ([1]; 0.25 hr) was 0%, the “Rotarod Assay (% impaired)” value ([1]; 0.5 hr) was 75% and the “Rotarod Assay (% impaired)” value ([1]; 1 hr) was 100%. The “Rotarod Assay (% impaired)” value ([1]; 2 hr) was 75%, the “Rotarod Assay (% impaired)” value ([1]; 4 hr) was 50% and the IC50 [2] was 60 nM. For the same molecule, the “Epilepsy 6 Hz (% Protected)” value ([3]; 0.25 hr) was 100%, the “Epilepsy 6 Hz (% Protected)” value ([3]; 0.5 hr) was 75% and the “Epilepsy 6 Hz (% Protected)” value ([3]; 1 hr) was 100%. The “Epilepsy 6 Hz (% Protected)” value ([3]; 2 hr) was 0%, the “Epilepsy 6 Hz (% Protected)” value ([3]; 4 hr) was 50% and the “% Antiallodynia (Mean ± SD)” value ([4]; 1 h) was 36 ± 19 %. The “% Antiallodynia (Mean ± SD)” value ([4]; 4 h) was 4 ± 8%, the anti-allodynia effects ([4]; 1 hr) was 68±12% and the anti-allodynia effects ([4]; 2 hr) was 76±6%. It also gave an anti-allodynia effects ([4]; 4 hr) of 42±14%.
